# Experiments:
# [1] = Stability of solution under light; type: physicochemical; conditions: sealed glass tube, stocked under room light, 6 months after the synthesis
# Excerpt: <Stability of Solution Under Light>
# [2] = tested on: anti-A blood serum, anti-B blood serum; assay: Function of serum antibodies for ABO blood types; type: biochemical, human
# Description: It is also known that antibody has a structure of Y shape which consists of 2 pairs of light chain and heavy chain in generally, and that the fundamental structure is maintained by S—S bond. Serum antibody reaction of ABO blood types is important historically to understand various kinds of antigen-antibody reactions. In this invention, effect of Yoshixol (4 μl) on the standard judgment of ABO blood types was investigated by using human blood of A type, B type and O type (400 μl, respectively).
# E. coli strain no. W3110 = assay: Anti-microbacterial effect on E. Coli; type: cell-based; conditions: for colony formation unit (CFU): 2 μl per 1 ml of culture medium
# [3] = tested on: E79 double-chained DNA phage; assay: Effect on bacteriophage, numbers of plaques; type: cell-based, bacteriophage (indication bacteria pseudomonas aeruginosa)
# Description: Yoshixol (4 μl) were added in 1 ml of phage solution (E79 double-chained DNA phage) which was adjusted on about 10^7 per 1 ml, and were mixed well. Then, 10 μl of the mixture sampled after 5, 10, 20, 30 minutes was diluted by quickly adding in 10 ml of medium, so that 100 μl of the phage-diluted solution put into the test tube as the upper plate with the warmed gelatin agar, which was mixed with 100 μl of the indication bacterial solution (pseudomonas aeruginosa) cultured for one night. Then, the adjusted solution of the phages in the test tube was dropped on the agar plate and, homogeneous surface of the upper agar plate was produced by smoothly rotating the plate on the table. After resting it on the table about 10 minute when multilayer gelatin agar sufficiently became solid, they were stocked into the incubator at 37° C. After one night incubation, numbers of plaques were counted. As a result, the numbers of plaques in the 5 min-treated phage solution, in 10 min-treated phage solution and in the […] phage solution with Yoshixol decreased to 33%, 15% and 6% of the plaques formation in the non-treated phage solution, respectively.
# [4] = molecular target: T1, Recombinant Taq DNA Polymerase (Thermus aquaticus, UniProt P19821); assay: PCR with polymerase enzymes treated with Yoshixol; type: biochemical
# T1 construct: purchased TaKaRa Shuzo Co., Otsu city R001A
# Description: (§1) Effect of Yoshixol on PCR was investigated by DNA template which was extracted from snake (blue-green snake, captured at Matsumoto city, Nagano). The new synthesized dimer of (SEQ ID NO: 2) (5′>CTTCGGGCTTCGGG<3′) with 7 base-pair alignment (CTTCGGG) above-mentioned was used as a primer. PCR reaction was done by use of DNA thermal cycler (PJ-2000) made in PERKIN ELMER CETUS company. The following six combinations were prepared for the test samples. Those are two kinds of samples which consist of 5 μl of primer (100 pico mole/μl) with 5 μl of Yoshixol (P+) and without Yoshixol (P−). In addition, two kinds of samples which consist of 5 μl. of snake DNA (500 ng/μl) with 5 μl of Yoshixol (D+) and without Yoshixol (D−). And, additional two kinds of samples which consist of 1 μl of polymerase enzymes (Recombinant Taq DNA Polymerase, No. R001A, TaKaRa Shuzo Co., Otsu city: 5 unit/pd) with 1 μl of Yoshixol (Pm+) and without Yoshixol (Pm−). After each sample was placed for 10 minutes at room temperature, each sample was diluted in distilled water. And, it is adjusted in a primer solution of 10 picomole/μl, DNA solution of 50 ng/μl and a polymerase enzymes solution of 0.5 unit/μl. Then, the following combinations were prepared. […] In each combination, amount of cDNA synthesis was amplified by a PCR method and was measured. […]
# [5] = tested on: primer (SEQ ID NO: 2) and snake DNA; assay: PCR with primer or DNA template treated with Yoshixol; type: biochemical
# Description: as §1
# thrombin = thrombin (Homo sapiens, UniProt P00734); assay: Composition of amino acids in thrombin; type: biochemical; design: 1 ml of human thrombin before and after treatment with Yoshixol; conditions: did not exist before treatment; Yoshixol 4 μl
# Description: Changes in composition of amino acids were analyzed by use of 1 ml of human blood serum, 1 ml of human fibrinogen (concentration of 160 mg/dl), 1 ml of human thrombin before and after treatment with Yoshixol (4 μl). The total amino acids in the human blood serum which was treated with Yoshixol decreased by 41%. And, ratio of each composition was altered after the treatment so that as an example the concentration of phosphoserine increased about 20 times which level was from 7.2 picomole to 164.8 picomole.
structure (smiles),measurement,setting,value
"C=C1CC(C)(C)C=CC1=O [Yoshixol, 4,4-dimethyl-6-methylene-2-cyclohexen-1-one]","Changes in coloring, viscosity and odor",[1],did not change
same,primary structure of antiserums for ABO blood types (electrophoretic analysis),[2]; after treatment of Yoshixol,any change in primary structure of antiserums did not find
same,blood aggregation in judgment of ABO blood type,"[2]; antiserum treated with Yoshixol 4 μl, human blood A, B, O type 400 μl",any aggregation did not occur
same,colony formation unit (CFU),"E. coli strain no. W3110; after 1 hour cultured, initial 10^8",zero
same,colony formation unit (CFU),"E. coli strain no. W3110; after 24 hours, initial 10^8, control 10^10",zero
same,proliferation with evaporating component of Yoshixol,"E. coli strain no. W3110; 50 μl in the whole space of the schale, indirect contact, 24 hours, 37° C.",did not occur
same,"histological aspect of cell death, scanning electron microscopy",E. coli strain no. W3110; final stage after Yoshixol,destroyed resulting in small particles
same,"numbers of plaques, of the plaques formation in the non-treated phage solution","[3]; Yoshixol 4 μl in 1 ml phage solution (about 10^7 per ml), 5 min-treated",33%
same,"numbers of plaques, of the plaques formation in the non-treated phage solution","[3]; Yoshixol 4 μl in 1 ml phage solution, 10 min-treated",15%
same,"numbers of plaques, of the plaques formation in the non-treated phage solution","[3]; Yoshixol 4 μl in 1 ml phage solution, 15 min-treated",6%
same,plaques formation,"[3]; Yoshixol 4 μl in 1 ml phage solution, treated over 20 min",plaques formation did not find
same,"PCR bounds, group P−, D−, Pm+","[4]; 1 μl polymerase with 1 μl of Yoshixol, untreated 4 bounds between 0.5 and 1.2 kb",only one bound at lowest molecular weight within 4 bounds was appeared
same,"PCR bounds, group P−, D−, Pm+A",[4]; concentration of Yoshixol for the polymerase increased to 100 times,any kind of bounds did not observe
same,"PCR bounds versus P−, D−, Pm−, group P+, D−, Pm−",[5]; only primer processed by Yoshixol (5 μl with 5 μl),did not differ
same,"PCR bounds versus P−, D−, Pm−, group P−, D+, Pm−",[5]; only snake DNA processed by Yoshixol (5 μl with 5 μl),did not differ
same,"glutamic acid, taurine, methionine and aminoisobutylic acid in thrombin sample",thrombin,produced newly
